Measurements from US6485975B1, “Method for regenerating viable and fertile citrus plants by tissue culture from explants” (Council of Scientific and Industrial Research, priority 2000, dated 2002).
Values joined by “and” are separate entries in the source; they are usually repeats but may differ in a detail not shown here. Equal entries are not always repeated.

Columns and labels:
[1] = system: excised shoot meristems of Citrus aurantifolia and C. sinensis; test: Growth of excised shoot meristems, both Citrus species not distinguished; assay type: cell-based
Description: e) excising the meristem domes along with youngest 2-3 leaf primordia ranging in length between 0.2-0.5 mm from the aseptically grown shoots followed by their culture on the liquid medium-C under the same controlled light and temperature conditions as in step (c) at least for a period of 15 days to let them attain a length of ca. 8 mm, f) subculturing the meristem-regenerated shoots on filter paper bridge employing liquid medium-D in order to obtain healthy shoots of an average length of about 1.5 cm without intervening callusing within a period of 20-25 days, Since for growth, an excised shoot meristem may require exogenous supply of mainly three growth hormones, viz., a cytokinin, an auxin and a gibberellin, these were provided individually at 3 concentrations (mg 1^−1) each and in certain combinations as given below using the medium-C (Table I) devoid of IAA and GA as the basal medium: 0.1 BAP; 0.25 BAP; 0.5 BAP; 0.1 IAA; 0.25 IAA; 0.5 IAA: 5 GA; 10 GA; 15 GA; 0.1 BAP+0.1 IAA; 0.25 BAP+0.1 IAA; 0.5 BAP+0.1 IAA; 5 GA+0.1 IAA; 10 GA+0.1 IAA and 15 GA+0.1 IAA. […] In the next step, on the basis of the responses obtained, shoot meristems were cultured in all the afore-said 3 concentrations of BAP (0.1, 0.25 and 0.5 mg 1^−1) or GA (5, 10 and 15 mg 1^−1) along with 0.1 mg 1^−1 IAA. […] In this treatment, growth of meristem on nutrient agar as well as in liquid medium using filter paper bridge was compared. Shoot meristems grew far better on filter paper bridge than on nutrient agar in the same treatment (table 3). […] Higher or lower than 0.1 mg 1^−1 concentrations of BAP were not conducive to normal growth of shoot meristems.

[2] = system: isolated shoots of C. sinensis; test: Proliferation of isolated shoots of C. sinensis; assay type: cell-based, Citrus sinensis; settings: for Condition of shoots / Growth of regenerated shoots Length in cm: 30 days; for No. of off-shoots regenerated: culture period 30 days, mean of 5 cultures ± S.E.
Description: (§1) g) proliferating the meristem-regenerated 1.5-cm-long shoots of C. aurantifolia and C. sinensis by repeated subculture in medium-A and medium-B, respectively to obtain well-developed shoots to the extent of an average 10 shoots and 6 shoots, respectively, within 4 subcultures of 30 days each,
(§2) Proliferation of Isolated Shoots Obtained from Regenerated Nodal Stem Segments of Mature Field-grown Trees of Citrus aurantifolis and C. sinensis
(§3) Proliferation of isolated shoots was obtained in presence of BAP and an auxin, LAA or NAA employing the medium-A (Table I) for C. aurantifolia, and medium-B (Table I) for C. sinensis, but not vice-versa, where both media A and B, devoid of growth hormones comprised the basal media. […] Responses of the isolated shoots to some selected combinations of BAP with IAA or NAA are given in the Table 1, which lead to the selection of specific nutrient media for optimum proliferation of shoots of these two Citrus species.
Likewise, 0.25 mg 1^−1 concentration of BAP and 0.5 mg 1^−1 of NAA were selected comprising the medium-B for optimum proliferation of shoots of C. sinensis in view of the same two criteria, viz., moderately high number of offshoot production with good growth and their differentiation without any intervening callusing.

[3] = system: isolated shoots of Citrus aurantifolia; test: Proliferation of isolated shoots of Citrus aurantifolia; assay type: cell-based; settings: for Condition of shoots / Growth of regenerated shoots Length in cm: 30 days; for No. of off-shoots regenerated: culture period 30 days, mean of 5 cultures ± S.E.
Description: as §1, §2, §3
The maximum number of offshoots produced per explant of a shoot tip of C. aurantifolia was 7 in 0.75 mg 1^−1 BAP and 0.25 mg 1^−1 IAA, however, the shoots not only were restricted in growth, but also substantial intervening callus was formed. Similarly, in the concentrations of 0.5 and 1.0 mg 1^−1 BAP, particularly the second aspect of response remained equally prominent, i.e., growth restriction of offshoots and intervening callusing during their differentiation. […] Thus, the 0.25 mg 1^−1 concentration of both BAP and IAA was selected comprising the medium-A for proliferation of isolated shoots originally regenerated from nodal stem segments of mature field-grown trees of C. aurantifolia.

[4] = system: meristem-regenerated shoots of C. sinensis; test: Root induction in meristem-regenerated shoots of C. sinensis; assay type: cell-based, Citrus sinensis; settings: same treatments as for C. aurantifolia (0.25 mg l^-1 auxin, 1 mg l^-1 chlorogenic acid)
Description: (§4) h) rooting of the isolated well-developed shoots of C. aurantifolia to the extent of 100% in 15 days, and of C. sinensis to the extent of 90% in 25 days, in agarified media-E and F respectively.
The medium-E, which was found effective for inducing desirable rooting in a number of Citrus species, including its rootstocks, when was found deficient for promoting root induction in the presence of multiple combinations of auxins, viz., IAA. IPA, IBA and NAA without or with phenolic acids, namely, phloroglucinol and chlorogenic acid, it was variously modified. The modifications included, increase in the concentrations of thiamine-HCl, pyridoxine-HCl and nicotinic acid to 2.5, 0.5 and 0.5 mg 1^−1, respectively, addition of some other root promoting vitamins, like, riboflavin, folic acid and d-biotin at the concentration of 0.1 mg 1^−1 each as also 15 mg 1^−1 L-arginine.
The rooting responses of well-developed isolated shoots of C. sinensis to various auxins used without and with phenolic acids employing the medium-E (Table I) devoid of auxins and the phenolic acid as the basal medium, are presented in Table 3. A combination of three auxins, namely, IAA, NAA and IPA along with a phenolic acid, namely, chlorogenic acid or phloroglucinol was essential for root induction.

[5] = system: meristem-regenerated shoots of Citrus aurantifolia; test: Root induction in meristem-regenerated shoots of Citrus aurantifolia; assay type: cell-based; settings: 0.25 mg l^-1 of the auxin, used with 1 mg l^-1 chlorogenic acid
Description: as §4
The meristem-regenerated well-developed shoots of C. aurantifolia easily rooted in medium-E (Table I) selected on the basis of the formulations used earlier during the investigations on Citrus tissue culture in this Laboratory (Chaturvedi, H. C. 1979. Tissue culture of economic plants. In: Progress in Plant Research. Eds. T. N. Khoshoo and P. K. K. Nair, Today and Tomorrow's Publisher, New Delhi, Vol.1, pp.265-288; Chaturvedi, H. C. and Sharma, A. K. 1988. Citrus tissue culture. In: Proc. Natl. Seminar on Plant Tissue Culture, I.C.A.R., New Delhi, pp.36-46). The basic differences of the root inducing media from the shoot proliferation media of Citrus are, comparatively lower concentrations of nitrogen, calcium and magnesium in the former. […] Even its shoots raised from seedling explants have been reported to be intractable-to-root in vitro (Duran-vila, N., Ortega, V. and Navarro, L. 1989. Morphogenesis and tissue cultures of three citrus species. Plant Cell, Tissue and Organ Culture, 16: 123-133).

[6] = BAP (0.1, 0.25, 0.5 mg l^-1) or GA (5, 10, 15 mg l^-1) along with 0.1 mg l^-1 IAA
[7] = individually at lower concentrations: IAA 0.1 mg l^-1 or GA 5 mg l^-1

c1ccc(CNc2ncnc3nc[nH]c23)cc1 [BAP, 6-benzylaminopurine]
response of shoot meristems [1, 6]: became abnormally thick
delay of necrosis of shoot meristem ([1]; BAP individually, particularly 0.1 mg l^-1): 10 to 15 days
Condition of shoots ([2]; BAP 0.1 mg l^-1 with 0.5 NAA): A few well-
Growth of regenerated shoots Length in cm ([2]; BAP 0.1 mg l^-1 with 0.5 NAA): 1.16 ± 0.27 cm
No. of off-shoots regenerated ([2]; BAP 0.1 mg l^-1 with 0.5 NAA): 1.8 ± 0.37
Condition of shoots ([2]; BAP 0.25 mg l^-1 with 0.5 NAA): Well-developed
Growth of regenerated shoots Length in cm ([2]; BAP 0.25 mg l^-1 with 0.5 NAA): 1.65 ± 0.20 cm
No. of off-shoots regenerated ([2]; BAP 0.25 mg l^-1 with 0.5 NAA): 2.6 and 2.6 ± 0.24
Condition of shoots ([2]; BAP 0.5 mg l^-1 with 0.5 NAA): Well-developed
Growth of regenerated shoots Length in cm ([2]; BAP 0.5 mg l^-1 with 0.5 NAA): 1.08 ± 0.12 cm
No. of off-shoots regenerated ([2]; BAP 0.5 mg l^-1 with 0.5 NAA): 3.4 ± 0.44
Growth of regenerated shoots Length in cm ([2]; BAP 0.75 mg l^-1 with 0.5 NAA): 0.78 ± 0.10 cm
No. of off-shoots regenerated ([2]; BAP 0.75 mg l^-1 with 0.5 NAA): 3.2 ± 0.73
Growth of regenerated shoots Length in cm ([2]; BAP 1.0 mg l^-1 with 0.5 NAA): 0.75 ± 0.08 cm
No. of off-shoots regenerated ([2]; BAP 1.0 mg l^-1 with 0.5 NAA): 2.0 ± 0.31
Condition of shoots ([3]; BAP 0.1 mg l^-1 with 0.25 IAA): A few well-develop-
Growth of regenerated shoots Length in cm ([3]; BAP 0.1 mg l^-1 with 0.25 IAA): 1.44 ± 0.14 cm
No. of off-shoots regenerated ([3]; BAP 0.1 mg l^-1 with 0.25 IAA): 3.6 ± 0.40
Condition of shoots ([3]; BAP 0.25 mg l^-1 with 0.25 IAA): Well-developed
Growth of regenerated shoots Length in cm ([3]; BAP 0.25 mg l^-1 with 0.25 IAA): 1.40 ± 0.13 cm
No. of off-shoots regenerated ([3]; BAP 0.25 mg l^-1 with 0.25 IAA): 5.8 and 5.8 ± 0.58
Growth of regenerated shoots Length in cm ([3]; BAP 0.5 mg l^-1 with 0.25 IAA): 0.99 ± 0.10 cm
No. of off-shoots regenerated ([3]; BAP 0.5 mg l^-1 with 0.25 IAA): 5.4 ± 1.02
Growth of regenerated shoots Length in cm ([3]; BAP 0.75 mg l^-1 with 0.25 IAA): 0.86 ± 0.08 cm
No. of off-shoots regenerated ([3]; BAP 0.75 mg l^-1 with 0.25 IAA): 7 and 7.0 ± 0.44
Growth of regenerated shoots Length in cm ([3]; BAP 1.0 mg l^-1 with 0.25 IAA): 0.76 ± 0.10 cm
No. of off-shoots regenerated ([3]; BAP 1.0 mg l^-1 with 0.25 IAA): 5.6 ± 1.40

C=C1C[C@]23C[C@@]1(O)CC[C@H]2[C@@]12C=C[C@H](O)[C@@](C)(C(=O)O1)[C@H]2[C@@H]3C(=O)O [GA, gibberellic acid]
response of shoot meristems [1, 6]: registered some growth
response of shoot meristems [1, 7]: remained fresh with a little increase in their length

O=C(O)CCCc1c[nH]c2ccccc12 [IBA, indole-3-butyric acid]
rooting [4]: did not root
rooting [5]: Hundred percent

O=C(O)CCc1c[nH]c2ccccc12 [IPA, indole-3-propionic acid]
rooting [4]: did not root
rooting [5]: Hundred percent

O=C(O)Cc1cccc2ccccc12 [NAA, α-naphthalene-acetic acid]
rooting [4]: did not root
rooting [5]: Hundred percent

O=C(O)Cc1c[nH]c2ccccc12 [IAA, indole-3-acetic acid]
rooting [4]: did not root
response of shoot meristems [1, 7]: remained fresh with a little increase in their length
rooting [5]: Hundred percent
